Assay results: US8148391B2 (Cephalon, Inc., priority 2006, dated 2012)

The compounds below were run against T1, baculovirus-expressed ALK (Homo sapiens, UniProt Q9UM73) (assay: ALK Kinase Assay (ELISA-type, time-resolved fluorescence)). Conditions: 1 μM ATP (Km level), 30 ng/ml ALK, 37° C., 15 minutes; read-out: ALK Activity (ALK kinase inhibition, IC50 class).
T1 construct: host or cells: baculovirus expression system
Assay type: biochemical
Description: Briefly, each 96-well plate was coated with 100 μL/well of 10 μg/mL substrate (phospholipase C-γ) in Tris-buffered saline (TBS). […] The reaction was initiated by adding enzyme (30 ng/ml ALK) and was allowed to proceed at 37° C. for 15 minutes. Detection of the phosphorylated product was performed by adding 100 μl/well of Eu-N1 labeled PT66 antibody (Perkin Elmer # AD0041).
Data analysis was performed using ActivityBase (IDBS, Guilford, UK). IC50 values were calculated by plotting percent inhibition versus log10 of the concentration of compound and fitting to the nonlinear regression sigmoidal dose-response (variable slope) equation in XLFit (IDBS, Guilford, UK).

T1 sequence (Q9UM73 19-1620): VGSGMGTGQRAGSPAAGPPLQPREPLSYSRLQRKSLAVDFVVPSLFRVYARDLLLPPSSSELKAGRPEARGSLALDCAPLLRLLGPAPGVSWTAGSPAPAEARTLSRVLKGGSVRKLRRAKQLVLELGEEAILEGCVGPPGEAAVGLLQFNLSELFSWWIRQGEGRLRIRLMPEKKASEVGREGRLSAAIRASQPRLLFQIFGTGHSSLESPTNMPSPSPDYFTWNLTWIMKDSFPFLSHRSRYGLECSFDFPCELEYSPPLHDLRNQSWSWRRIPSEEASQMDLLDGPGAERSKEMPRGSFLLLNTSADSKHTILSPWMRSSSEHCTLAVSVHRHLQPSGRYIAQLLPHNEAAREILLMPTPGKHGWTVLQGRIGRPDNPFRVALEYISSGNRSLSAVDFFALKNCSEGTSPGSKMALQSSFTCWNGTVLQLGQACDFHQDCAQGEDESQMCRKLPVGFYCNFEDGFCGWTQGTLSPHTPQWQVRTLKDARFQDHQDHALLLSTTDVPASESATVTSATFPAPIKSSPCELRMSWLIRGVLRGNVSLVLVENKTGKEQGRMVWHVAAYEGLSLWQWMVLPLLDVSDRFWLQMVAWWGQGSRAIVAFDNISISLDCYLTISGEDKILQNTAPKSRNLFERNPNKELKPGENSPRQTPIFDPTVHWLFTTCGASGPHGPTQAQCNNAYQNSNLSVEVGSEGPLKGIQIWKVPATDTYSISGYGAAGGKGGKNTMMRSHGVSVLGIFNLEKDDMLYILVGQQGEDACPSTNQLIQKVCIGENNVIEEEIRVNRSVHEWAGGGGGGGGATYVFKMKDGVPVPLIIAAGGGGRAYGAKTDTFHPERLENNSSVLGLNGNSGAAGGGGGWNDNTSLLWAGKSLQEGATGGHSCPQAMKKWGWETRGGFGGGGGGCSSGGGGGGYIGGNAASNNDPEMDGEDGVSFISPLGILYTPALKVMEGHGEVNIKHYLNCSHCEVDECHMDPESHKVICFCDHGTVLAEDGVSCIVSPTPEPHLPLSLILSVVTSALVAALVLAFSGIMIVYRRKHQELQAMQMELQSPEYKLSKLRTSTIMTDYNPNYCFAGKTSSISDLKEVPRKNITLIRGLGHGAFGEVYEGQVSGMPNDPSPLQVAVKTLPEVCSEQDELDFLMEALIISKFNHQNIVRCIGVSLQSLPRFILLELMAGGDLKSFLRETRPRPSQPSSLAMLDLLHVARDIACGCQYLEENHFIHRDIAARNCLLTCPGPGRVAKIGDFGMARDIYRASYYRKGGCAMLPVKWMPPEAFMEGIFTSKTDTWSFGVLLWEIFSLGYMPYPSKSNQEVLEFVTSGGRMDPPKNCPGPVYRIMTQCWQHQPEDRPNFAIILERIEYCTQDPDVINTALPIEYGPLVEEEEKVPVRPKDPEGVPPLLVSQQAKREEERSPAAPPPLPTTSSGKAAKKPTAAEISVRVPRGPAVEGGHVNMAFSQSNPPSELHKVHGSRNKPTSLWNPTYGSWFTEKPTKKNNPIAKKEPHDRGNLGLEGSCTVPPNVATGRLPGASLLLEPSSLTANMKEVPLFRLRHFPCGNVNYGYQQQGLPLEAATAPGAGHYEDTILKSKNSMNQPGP

Structure (SMILES) | IC50
CNC(=O)c1cccc(F)c1Nc1nc(Nc2ccc3c(c2)NC(=O)C(NC(=O)OC)CC3(C)C)ncc1Cl (stereo not drawn) [Example 1299, {8-[5-Chloro-4-(2-fluoro-6-methylcarbamoyl-phenylamino)-pyrimidin-2-ylamino]-5,5-dimethyl-2-oxo-2,3,4,5-tetrahydro-1H-1-benzazepin-3-yl}-carbamic acid methyl ester] | 0.1 to 1 µM
CNC(=O)c1cccc(F)c1Nc1nc(Nc2ccc3c(c2)NC(=O)C(NC(=O)CN(C)C)CC3(C)C)ncc1Cl (stereo not drawn) [Example 1285, 2-{5-Chloro-2-[3-(2-dimethylamino-acetylamino)-5,5-dimethyl-2-oxo-2,3,4,5-tetrahydro-1H-1-benzazepin-8-ylamino]-pyrimidin-4-ylamino}-3-fluoro-N-methyl-benzamide] | 0.1 to 1 µM
CCCCNC(=O)c1ccccc1Nc1nc(Nc2ccc3c(c2)CCCC(=O)N3C)ncc1Cl [Example 1030, N-Butyl-2-[5-chloro-2-(1-methyl-2-oxo-2,3,4,5-tetrahydro-1H-benzo[b]azepin-7-ylamino)-pyrimidin-4-ylamino]-benzamide] | < 0.1 µM
CNC(=O)c1cccc(F)c1Nc1nc(Nc2ccc3c(c2)NC(=O)C(N)CC3(C)C)ncc1Cl (stereo not drawn) [Example 1272, 2-[2-(3-Amino-5,5-dimethyl-2-oxo-2,3,4,5-tetrahydro-1H-1-benzazepin-8-ylamino)-5-chloro-pyrimidin-4-ylamino]-3-fluoro-N-methyl-benzamide] | < 0.1 µM
CCCNC(=O)c1ccccc1Nc1nc(Nc2ccc3c(c2)CCCC(=O)N3C)ncc1Cl [Example 1025, 2-[5-Chloro-2-(1-methyl-2-oxo-2,3,4,5-tetrahydro-1H-benzo[b]azepin-7-ylamino)-pyrimidin-4-ylamino]-N-propyl-benzamide] | < 0.1 µM
CNC(=O)c1cccc(F)c1Nc1nc(Nc2ccc3c(c2)NC(=O)C(NC(=O)N2CCCC2)CC3(C)C)ncc1Cl (stereo not drawn) [Example 1295, Pyrrolidine-1-carboxylic acid {8-[5-chloro-4-(2-fluoro-6-methylcarbamoyl-phenylamino)-pyrimidin-2-ylamino]-5,5-dimethyl-2-oxo-2,3,4,5-tetrahydro-1H-1-benzazepin-3-yl}-amide] | 0.1 to 1 µM

Continued, values first:

IC50 | Structure (SMILES)
0.1 to 1 µM | CNC(=O)c1cccc(F)c1Nc1nc(Nc2ccc3c(c2)OCCCN3C(=O)OC)ncc1Cl [Example 1431, 3-[5-Chloro-4-(2-fluoro-6-methylcarbamoyl-phenylamino)-pyrimidin-2-ylamino]-7,8-dihydro-6H-5-oxa-9-aza-benzocycloheptene-9-carboxylic acid methyl ester]
0.1 to 1 µM | CNC(=O)c1cccc(F)c1Nc1nc(Nc2ccc3c(c2)OCCCN3C(=O)OC(C)C)ncc1Cl [Example 1432, 3-[5-Chloro-4-(2-fluoro-6-methylcarbamoyl-phenylamino)-pyrimidin-2-ylamino]-7,8-dihydro-6H-5-oxa-9-aza-benzocycloheptene-9-carboxylic acid isopropyl ester]
0.1 to 1 µM | CNC(=O)c1cccc(F)c1Nc1nc(Nc2ccc3c(c2)OCCCN3C(=O)OCCCN(C)C)ncc1Cl [Example 1426, 3-[5-Chloro-4-(2-fluoro-6-methylcarbamoyl-phenylamino)-pyrimidin-2-ylamino]-7,8-dihydro-6H-5-oxa-9-aza-benzocycloheptene-9-carboxylic acid 3-dimethylamino-propyl ester]
0.1 to 1 µM | CCOC(=O)N1CCCOc2ccc(Nc3ncc(Cl)c(Nc4c(F)cccc4C(=O)NC)n3)cc21 [Example 1410, 2-[5-Chloro-4-(2-fluoro-6-methylcarbamoyl-phenylamino)-pyrimidin-2-ylamino]-7,8-dihydro-6H-5-oxa-9-aza-benzocycloheptene-9-carboxylic acid ethyl ester]

Same assay, conditions: ALK kinase inhibition, 1 μM ATP (Km level); read-out: ALK Activity

IC50 | Structure (SMILES)
< 0.1 µM | CNC(=O)c1ccccc1Nc1nc(Nc2ccc3c(c2)CCN(CCOC)CC3)ncc1Cl [Example 34, 2-{5-Chloro-2-[3-(2-methoxy-ethyl)-2,3,4,5-tetrahydro-1H-benzo[d]azepin-7-ylamino]-pyrimidin-4-ylamino}-N-methyl-benzamide]
0.1 to 1 µM | CNC(=O)c1cccc(Cl)c1Nc1nc(Nc2ccc3c(c2)C(C)(C)CCC(=O)N3)ncc1Cl [Example 382, 3-Chloro-2-[5-chloro-2-(5,5-dimethyl-2-oxo-2,3,4,5-tetrahydro-1H-benzo[b]azepin-7-ylamino)-pyrimidin-4-ylamino]-N-methyl-benzamide]
0.1 to 1 µM | CNC(=O)c1cccc(C)c1Nc1nc(Nc2ccc3c(c2)CCN(CCOC)CC3)ncc1Cl [Example 313, 2-{5-Chloro-2-[3-(2-methoxy-ethyl)-2,3,4,5-tetrahydro-1H-benzo[d]azepin-7-ylamino]-pyrimidin-4-ylamino}-3,N-dimethyl-benzamide]
< 0.1 µM | CN1C(=O)CCCc2cc(Nc3ncc(Cl)c(Nc4ccccc4C(N)=O)n3)ccc21 [Example 7, 2-[5-Chloro-2-(1-methyl-2-oxo-2,3,4,5-tetrahydro-1H-benzo[b]azepin-7-ylamino)-pyrimidin-4-ylamino]-benzamide]
< 0.1 µM | CNC(=O)c1cccc(F)c1Nc1nc(Nc2ccc3c(c2)CCN(CCOC)CC3)ncc1Cl [Example 311, 2-{5-Chloro-2-[3-(2-methoxy-ethyl)-2,3,4,5-tetrahydro-1H-benzo[d]azepin-7-ylamino]-pyrimidine-4-ylamino}-3-fluoro-N-methyl-benzamide]
< 0.1 µM | CNC(=O)c1cccc(F)c1Nc1nc(Nc2ccc3c(c2)C(C)(C)CCC(=O)N3)ncc1Cl [Example 396, 2-[5-Chloro-2-(5,5-dimethyl-2-oxo-2,3,4,5-tetrahydro-1H-benzo[b]azepin-7-ylamino)-pyrimidin-4-ylamino]-3-fluoro-N-methyl-benzamide]

Same assay, conditions: ALK kinase inhibition, 1 μM ATP; read-out: ALK Activity

Structure (SMILES) | IC50
CCN1C(=O)CCC(C)(C)c2ccc(Nc3ncc(Cl)c(Nc4c(F)cccc4C(=O)NC)n3)cc21 [Example 1576, 2-[5-Chloro-2-(1-ethyl-5,5-dimethyl-2-oxo-2,3,4,5-tetrahydro-1H-benzo[b]azepin-8-ylamino)-pyrimidin-4-ylamino]-3-fluoro-N-methyl-benzamide] | < 0.1 µM
CNC(=O)c1cccc(F)c1Nc1nc(Nc2ccc3c(c2)N(C(C)C)C(=O)CCC3(C)C)ncc1Cl [Example 1588, 2-[5-Chloro-2-(1-isopropyl-5,5-dimethyl-2-oxo-2,3,4,5-tetrahydro-1H-benzo[b]azepin-8-ylamino)-pyrimidin-4-ylamino]-3-fluoro-N-methyl-benzamide] | < 0.1 µM
CNC(=O)c1cccc(F)c1Nc1nc(Nc2ccc3c(c2)NC(=O)CCC3(C)C)ncc1Cl [Example 1574, 2-[5-Chloro-2-(5,5-dimethyl-2-oxo-2,3,4,5-tetrahydro-1H-benzo[b]azepin-8-ylamino)-pyrimidin-4-ylamino]-3-fluoro-N-methyl-benzamide] | 0.1 to 1 µM
CNC(=O)c1cccc(F)c1Nc1nc(Nc2ccc3c(c2)OCCCN3CCN2CCCC2)ncc1Cl [Example 1718, 2-{5-Chloro-2-[9-(2-pyrrolidin-1-yl-ethyl)-6,7,8,9-tetrahydro-5-oxa-9-aza-benzocyclohepten-3-ylamino]-pyrimidin-4-ylamino}-3-fluoro-N-methyl-benzamide] | < 0.1 µM
CNC(=O)c1cccc(F)c1Nc1nc(Nc2ccc3c(c2)N(CC(C)C)C(=O)CCC3(C)C)ncc1Cl [Example 1592, 2-[5-Chloro-2-(1-isobutyl-5,5-dimethyl-2-oxo-2,3,4,5-tetrahydro-1H-benzo[b]azepin-8-ylamino)-pyrimidin-4-ylamino]-3-fluoro-N-methyl-benzamide] | < 0.1 µM

More lines, now with the values ahead:

IC50 | Structure (SMILES)
0.1 to 1 µM | CNC(=O)c1cccc(F)c1Nc1nc(Nc2ccc3c(c2)N(C(C)=O)CCCO3)ncc1Cl [Example 1701, 2-[2-(9-Acetyl-6,7,8,9-tetrahydro-5-oxa-9-aza-benzocyclohepten-2-ylamino)-5-chloro-pyrimidin-4-ylamino]-3-fluoro-N-methyl-benzamide]
0.1 to 1 µM | CNC(=O)c1cccc(F)c1Nc1nc(Nc2ccc3c(c2)OCCCN3)ncc1Cl [Example 1723, 2-[5-Chloro-2-(6,7,8,9-tetrahydro-5-oxa-9-aza-benzocyclohepten-3-ylamino)-pyrimidin-4-ylamino]-3-fluoro-N-methyl-benzamide]
0.1 to 1 µM | CCN1CCCOc2ccc(Nc3ncc(Cl)c(Nc4c(F)cccc4C(=O)NC)n3)cc21 [Example 1697, 2-[5-Chloro-2-(9-ethyl-6,7,8,9-tetrahydro-5-oxa-9-aza-benzocyclohepten-2-ylamino)-pyrimidin-4-ylamino]-3-fluoro-N-methyl-benzamide]
0.1 to 1 µM | CNC(=O)c1cccc(F)c1Nc1nc(Nc2ccc3c(c2)OCCCN3C(=O)COC)ncc1Cl [Example 1726, 2-{5-Chloro-2-[9-(2-methoxy-acetyl)-6,7,8,9-tetrahydro-5-oxa-9-aza-benzocyclohepten-3-ylamino]-pyrimidin-4-ylamino}-3-fluoro-N-methyl-benzamide]
0.1 to 1 µM | CNC(=O)c1cccc(F)c1Nc1nc(Nc2ccc3c(c2)OCCCN3C(C)=O)ncc1Cl [Example 1724, 2-[2-(9-Acetyl-6,7,8,9-tetrahydro-5-oxa-9-aza-benzocyclohepten-3-ylamino)-5-chloro-pyrimidin-4-ylamino]-3-fluoro-N-methyl-benzamide]
0.1 to 1 µM | CNC(=O)c1cccc(F)c1Nc1nc(Nc2ccc3c(c2)OCCCN3C(=O)CN2CCCC2)ncc1Cl [Example 1714, 2-{5-Chloro-2-[9-(2-pyrrolidin-1-yl-acetyl)-6,7,8,9-tetrahydro-5-oxa-9-aza-benzocyclohepten-3-ylamino]-pyrimidin-4-ylamino}-3-fluoro-N-methyl-benzamide]
